From patent publication US20100197608A1, “USE OF MELANOTROPHIN-POTENTIATING FACTOR AS A THERAPEUTIC AGENT” (priority 2007, published 2010)
Where a SMILES comes first, the peptide text is derived from it.

Key:
[1] = system: HIV-1IIIB; experiment: HIV-1 antiviral assay (CPE reduction) in CEM-SS cells; assay type: cell-based; conditions: peptide 10 micrograms per ml; 6 days post-infection; MTS
[2] = system: CEM-SS cells; experiment: Cytotoxicity in CEM-SS cells (MTS); conditions: peptide 10 micrograms per ml
[3] = system: MRC-5 cells; conditions: human, 6 days
[4] = system: Pseudomonas aeruginosa; assay type: cell-based; conditions: 5 micrograms per ml
[5] = system: Streptococcus pneumoniae; assay type: cell-based; conditions: 5 micrograms per ml
[6] = system: MRSA; conditions: 5 micrograms per ml
[7] = in vitro; conditions: human, CEM-SS cells
[8] = in vitro; conditions: human, MRC-5 cells
[9] = Cytotoxicity in HepG2-2.2.15 cells (dye uptake); conditions: human

Cc1cn([C@H]2C[C@H](N=[N+]=[N-])[C@@H](CO)O2)c(=O)[nH]c1=O [AZT]
% CPE reduction in HIV-1 infected CEM-SS cells [1]: 99%
% Cell viability [2]: 97%

Nc1nc(O)c2ncn(COC(CO)CO)c2n1 [Ganciclovir]
% Cell viability [3]: 100%

CC(C)(C)NC(=O)[C@@H]1CN(Cc2cccnc2)CCN1C[C@@H](O)C[C@@H](Cc1ccccc1)C(=O)N[C@H]1c2ccccc2C[C@H]1O [Indinavir, indinavir]
% CPE reduction in HIV-1 infected CEM-SS cells [1]: 100%

NCCCC[C@H](NC(=O)[C@@H](N)CCCCN)C(=O)NCC(=O)N[C@@H](CCC(=O)O)C(=O)O [MPF, Lys-Lys-Gly-Glu-OH] (H-KKGE-OH)
% inhibition [4]: 0.0%
% inhibition [5]: 0.0%
% inhibition [6]: 0.0%
viability at 10 micrograms per ml [7]: 100%
viability at 144 h [8]: 96.1%
viability at 144 h, 10 micrograms per ml [9]: 100%
